From patent US6660755B2, “Substituted diaryl or diheteroaryl methans, ethers and amines having retinoid agonist, antagonist or inverse agonist type biological activity” (Allergan, Inc., priority 1997, dated 2003)

What was measured:
RARα = target: T1, RARα (Homo sapiens, UniProt P10276); assay: Ligand binding assay, RARα
T1 sequence (P10276 1-462): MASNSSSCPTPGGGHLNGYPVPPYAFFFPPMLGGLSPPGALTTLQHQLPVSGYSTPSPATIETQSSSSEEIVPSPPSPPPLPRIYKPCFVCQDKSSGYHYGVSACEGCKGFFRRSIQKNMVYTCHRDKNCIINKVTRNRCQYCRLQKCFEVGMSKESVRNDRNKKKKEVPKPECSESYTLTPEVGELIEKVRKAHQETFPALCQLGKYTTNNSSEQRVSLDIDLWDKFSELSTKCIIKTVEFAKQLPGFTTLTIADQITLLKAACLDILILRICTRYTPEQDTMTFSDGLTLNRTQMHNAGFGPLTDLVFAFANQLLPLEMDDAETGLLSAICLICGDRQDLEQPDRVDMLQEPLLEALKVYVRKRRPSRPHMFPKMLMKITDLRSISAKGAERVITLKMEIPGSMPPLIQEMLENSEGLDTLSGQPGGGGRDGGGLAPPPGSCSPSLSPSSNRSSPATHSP
Excerpt: (§1) A holoreceptor transactivation assay and a ligand binding assay which measure the antagonist/agonist like activity of the compounds of the invention, or their ability to bind to the several retinoid receptor subtypes, respectively, are described in published PCT Application No. WO WO93/11755 (particularly on pages 30-33 and 37-41) published on Jun. 24, 1993, the specification of which is also incorporated herein by reference. A detailed experimental procedure for holoreceptor transactivations has been described by Heyman et al. Cell 1992, 68, 397-406; Allegretto et al. J. Biol. Chem. 1993 268, 26625-26633, and Mangelsdorf et al. The Retinoids: Biology, Chemistry and Medicine, pp 319-349, Raven Press Ltd., New York, which are expressly incorporated herein by reference. The results obtained in this assay are expressed in EC50 numbers, as they are also in the chimeric receptor transactivation assay. The results of ligand binding assay are expressed in Kd numbers. (See Cheng et al. Biochemical Pharmacology 22, 3099-3108, expressly incorporated herein by reference.) Still another transactivation assay, the “PGR assay” is described in the publication Klein et al. J. Biol. Chem. 1996, 271, 22692-22696, which is expressly incorporated herein by reference, and a detailed description is also provided below. The results of the PGR assay are also expressed in EC50 numbers (nanomolar concentration).

RARβ = target: T2, RARβ (Homo sapiens, UniProt P10826); assay: Ligand binding assay, RARβ; conditions: read-out: Kd RABβ
T2 sequence (P10826 1-455): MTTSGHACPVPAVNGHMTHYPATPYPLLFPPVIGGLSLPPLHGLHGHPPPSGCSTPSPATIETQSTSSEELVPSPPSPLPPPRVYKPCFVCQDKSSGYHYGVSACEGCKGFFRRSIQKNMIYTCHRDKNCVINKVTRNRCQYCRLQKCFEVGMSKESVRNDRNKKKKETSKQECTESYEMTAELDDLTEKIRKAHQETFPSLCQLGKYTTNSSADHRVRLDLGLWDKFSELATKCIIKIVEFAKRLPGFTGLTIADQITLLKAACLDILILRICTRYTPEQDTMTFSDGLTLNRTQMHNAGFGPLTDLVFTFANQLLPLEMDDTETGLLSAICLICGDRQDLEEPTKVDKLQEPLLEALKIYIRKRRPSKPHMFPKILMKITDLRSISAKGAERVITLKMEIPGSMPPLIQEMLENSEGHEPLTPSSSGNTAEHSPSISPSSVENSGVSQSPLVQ
Excerpt: as §1

RARγ = target: T3, RARγ (Homo sapiens, UniProt P13631); assay: Ligand binding assay, RARγ
T3 sequence (P13631 1-454): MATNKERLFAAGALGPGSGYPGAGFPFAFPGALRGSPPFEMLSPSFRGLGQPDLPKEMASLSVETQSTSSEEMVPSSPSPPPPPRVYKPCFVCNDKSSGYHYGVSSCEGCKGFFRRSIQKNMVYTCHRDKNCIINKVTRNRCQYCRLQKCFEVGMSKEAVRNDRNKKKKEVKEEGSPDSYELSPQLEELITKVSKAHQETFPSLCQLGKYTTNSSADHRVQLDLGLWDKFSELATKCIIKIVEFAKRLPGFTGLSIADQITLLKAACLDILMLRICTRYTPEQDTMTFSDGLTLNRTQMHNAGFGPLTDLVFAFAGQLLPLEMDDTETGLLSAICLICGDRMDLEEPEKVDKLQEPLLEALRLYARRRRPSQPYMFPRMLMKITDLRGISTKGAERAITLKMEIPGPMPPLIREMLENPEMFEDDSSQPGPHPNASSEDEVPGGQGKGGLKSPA
Excerpt: as §1

Which Kd (RARα) does the source give for `Cc1ccc(Oc2cc(C#Cc3ccc(C(=O)O)c(F)c3)ccc2C(C)(C)C)cc1` [Compound 26, 4-[[4′-tert-Butyl-3′-(4″-methyl)phenoxy]phenylethynyl]-2-fluoro-benzoic Acid] here?
The Kd was 11 nM.

What about the Kd (RARβ) of the same compound?
The Kd was 10 nM.

And the Kd (RARγ)?
The Kd was 17 nM.

For `CC(C)(C)c1ccc(C#Cc2ccc(C(=O)O)c(F)c2)cc1Oc1ccc(C(F)(F)F)cc1` [Compound 4, 4-[[4′-tert-Butyl-3′-(4″-trifluoromethyl)phenoxy]phenylethynyl]-2-fluoro-benzoic Acid], which Kd (RARα) is on record?
The Kd was 17 nM.

What about the Kd (RARβ) of the same compound?
The Kd was 14.5 nM.

And the Kd (RARγ)?
Its Kd is 59 nM.

`CC(C)(C)c1ccc(C#Cc2ccc(C(=O)O)c(F)c2)cc1Oc1ccc(I)cc1` [Compound 20, 4-[[4′-tert-Butyl-3′-(4″-iodo)phenoxy]phenylethynyl]-2-fluoro-benzoic Acid] was tested. Which Kd (RARα) did it give?
The Kd was 22.5 nM.

And the Kd (RARβ)?
The Kd was 16 nM.

And the Kd (RARγ)?
Its Kd is 84 nM.

`CC(C)(C)c1ccc(C#Cc2ccc(C(=O)O)c(F)c2)cc1Oc1ccc(N=[N+]=[N-])cc1` [Compound 17, 4-[[4′-tert-Butyl-3′-(4″-azido)phenoxy]phenylethynyl]-2-fluoro-benzoic Acid] was tested. Which Kd (RARα) did it give?
The Kd was 20 nM.

What about the Kd (RARβ) of the same compound?
Its Kd is 24 nM.

And the Kd (RARγ)?
Its Kd is 18 nM.

For `Cc1ccc(Oc2cc(/C=C/c3ccc(C(=O)O)cc3)ccc2C(C)(C)C)cc1` [Compound 15, 4-[[4′-tert-Butyl-3′-(4″-methyl)phenoxy]phenylvinyl]benzoic Acid], which Kd (RARα) is on record?
Its Kd is 12.5 nM.

And the Kd (RARβ)?
Its Kd is 0.8 nM.

And the Kd (RARγ)?
Its Kd is 33 nM.

Which Kd (RARα) does the source give for `Cc1ccc(Oc2cc(C#Cc3ccc(C(=O)O)cc3)ccc2C(C)(C)C)cc1` [Compound 30, 4-[[4′-tert-Butyl-3′-(4″-methyl)phenoxy]phenylethynyl]benzoic Acid] here?
The Kd was 48 nM.

What about the Kd (RARβ) of the same compound?
Its Kd is 13 nM.

What about the Kd (RARγ) of the same compound?
The Kd was 41 nM.

Which results are given for `CCc1ccc(Oc2cc(C#Cc3ccc(C(=O)O)c(F)c3)ccc2C(C)(C)C)cc1` [Compound 25, 4-[[4′-tert-Butyl-3′-(4″-ethyl)phenoxy]phenylethynyl]-2-fluoro-benzoic Acid]?
Kd (RARα): 12 nM; Kd (RARβ): 9 nM; Kd (RARγ): 22.5 nM

Which Kd (RARα) does the source give for `CC(C)(C)c1ccc(C#Cc2ccc(C(=O)O)cc2)cc1Oc1ccc(C(F)(F)F)cc1` [Compound 3, 4-[[4′-tert-Butyl-3′-(4″-trifluoromethyl)phenoxy]phenylethynyl]benzoic Acid] here?
The Kd was 90 nM.

What about the Kd (RARβ) of the same compound?
The Kd was 44 nM.

What about the Kd (RARγ) of the same compound?
The Kd was 102 nM.

`CC(C)(C)c1ccc(/C=C/c2ccc(C(=O)O)cc2)cc1Oc1ccc(C(F)(F)F)cc1` [Compound 22, 4-[[4′-tert-Butyl-3′-(4″-trifluoromethyl)phenoxy]vinyl]benzoic Acid] was tested. Which Kd (RARα) did it give?
Its Kd is 17 nM.

What about the Kd (RARβ) of the same compound?
The Kd was 36 nM.

And the Kd (RARγ)?
The Kd was 162 nM.
